Reference: patent US11767310B2, “Nicotinamide RIPK1 inhibitors” (AbbVie Inc., priority 2021, dated 2023)
Where two headings read alike, the source gives them in different places.

Tests used:
Assay in all cases: Kinase binding screen
Settings in all cases: read-out: Percent Control at 100 nM Compound Concentration
[1] = target: ABL1(F317I)-nonphosphorylated (Homo sapiens (Human), UniProt P00519, F317I)
[2] = target: ABL1(F317I)-phosphorylated (Homo sapiens (Human), UniProt P00519, F317I)
AKT1 = AKT1 (Homo sapiens (Human), UniProt P31749)
AURKB = AURKB (Homo sapiens (Human), UniProt Q96GD4)
CHEK1 = CHEK1 (Homo sapiens (Human), UniProt O14757)
CSNK1G2 = CSNK1G2 (Homo sapiens (Human), UniProt P78368)
Chain of CSNK1G2 (P78368 whole entry): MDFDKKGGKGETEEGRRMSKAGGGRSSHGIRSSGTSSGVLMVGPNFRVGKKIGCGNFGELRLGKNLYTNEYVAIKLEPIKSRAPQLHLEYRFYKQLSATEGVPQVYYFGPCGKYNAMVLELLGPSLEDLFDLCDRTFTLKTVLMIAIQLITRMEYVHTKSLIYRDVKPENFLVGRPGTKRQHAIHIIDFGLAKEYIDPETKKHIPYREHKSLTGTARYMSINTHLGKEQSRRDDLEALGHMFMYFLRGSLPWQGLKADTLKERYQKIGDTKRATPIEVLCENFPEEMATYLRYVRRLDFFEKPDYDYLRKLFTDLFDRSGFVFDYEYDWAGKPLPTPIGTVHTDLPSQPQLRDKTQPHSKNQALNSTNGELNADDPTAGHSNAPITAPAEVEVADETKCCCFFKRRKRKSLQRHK

DDR1 = DDR1 (Homo sapiens (Human), UniProt Q08345)
EPHA5 = EPHA5 (Homo sapiens (Human), UniProt P54756)
EPHB3 = EPHB3 (Homo sapiens (Human), UniProt P54753)
FES = FES (Homo sapiens (Human), UniProt P07332)
Chain of FES (P07332 whole entry): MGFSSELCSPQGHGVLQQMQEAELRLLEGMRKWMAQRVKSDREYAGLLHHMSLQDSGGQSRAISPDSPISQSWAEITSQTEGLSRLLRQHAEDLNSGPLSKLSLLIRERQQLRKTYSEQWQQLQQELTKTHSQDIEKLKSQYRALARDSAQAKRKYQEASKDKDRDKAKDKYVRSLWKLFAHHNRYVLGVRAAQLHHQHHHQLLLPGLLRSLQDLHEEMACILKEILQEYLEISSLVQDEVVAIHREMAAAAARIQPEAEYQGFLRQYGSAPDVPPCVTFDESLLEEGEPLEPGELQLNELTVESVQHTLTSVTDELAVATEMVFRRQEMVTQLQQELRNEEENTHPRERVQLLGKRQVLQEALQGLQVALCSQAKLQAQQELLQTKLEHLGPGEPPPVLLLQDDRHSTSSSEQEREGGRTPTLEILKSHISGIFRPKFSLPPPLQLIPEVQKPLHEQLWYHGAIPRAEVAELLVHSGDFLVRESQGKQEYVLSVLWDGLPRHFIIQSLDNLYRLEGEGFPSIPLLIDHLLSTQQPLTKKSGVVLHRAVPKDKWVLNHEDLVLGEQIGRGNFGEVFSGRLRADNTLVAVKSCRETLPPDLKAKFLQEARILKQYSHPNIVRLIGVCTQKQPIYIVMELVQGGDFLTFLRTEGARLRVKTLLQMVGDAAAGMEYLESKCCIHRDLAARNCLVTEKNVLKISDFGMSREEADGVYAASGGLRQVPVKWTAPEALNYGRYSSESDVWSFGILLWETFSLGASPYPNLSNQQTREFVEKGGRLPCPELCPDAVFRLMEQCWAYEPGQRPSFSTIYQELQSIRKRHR

FGFR1 = FGFR1 (Homo sapiens (Human), UniProt P11362)
Chain of FGFR1 (P11362 22-822): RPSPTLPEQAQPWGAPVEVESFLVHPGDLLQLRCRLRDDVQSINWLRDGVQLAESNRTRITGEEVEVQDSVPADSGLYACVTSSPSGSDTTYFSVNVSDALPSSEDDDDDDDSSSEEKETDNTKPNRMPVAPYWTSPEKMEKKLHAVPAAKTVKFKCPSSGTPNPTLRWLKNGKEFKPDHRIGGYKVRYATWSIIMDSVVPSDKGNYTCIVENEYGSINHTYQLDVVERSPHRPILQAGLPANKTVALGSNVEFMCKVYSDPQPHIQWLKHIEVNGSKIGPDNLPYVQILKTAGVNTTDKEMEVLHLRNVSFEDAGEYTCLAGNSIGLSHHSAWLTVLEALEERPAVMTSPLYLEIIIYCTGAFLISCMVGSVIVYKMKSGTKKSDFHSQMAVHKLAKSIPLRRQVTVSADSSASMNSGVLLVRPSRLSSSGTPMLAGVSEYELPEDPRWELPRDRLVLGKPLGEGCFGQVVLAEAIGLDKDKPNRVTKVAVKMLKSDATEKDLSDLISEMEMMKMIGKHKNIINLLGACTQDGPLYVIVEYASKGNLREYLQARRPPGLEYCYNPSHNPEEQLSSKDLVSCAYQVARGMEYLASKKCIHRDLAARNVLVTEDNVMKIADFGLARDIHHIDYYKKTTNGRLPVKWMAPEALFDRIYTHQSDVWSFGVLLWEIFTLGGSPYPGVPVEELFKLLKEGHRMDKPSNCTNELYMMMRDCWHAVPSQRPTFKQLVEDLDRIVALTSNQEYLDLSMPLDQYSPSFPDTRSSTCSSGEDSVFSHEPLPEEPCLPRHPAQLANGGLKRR

GRK7 = GRK7 (Homo sapiens (Human), UniProt Q8WTQ7)
Chain of GRK7 (Q8WTQ7 whole entry): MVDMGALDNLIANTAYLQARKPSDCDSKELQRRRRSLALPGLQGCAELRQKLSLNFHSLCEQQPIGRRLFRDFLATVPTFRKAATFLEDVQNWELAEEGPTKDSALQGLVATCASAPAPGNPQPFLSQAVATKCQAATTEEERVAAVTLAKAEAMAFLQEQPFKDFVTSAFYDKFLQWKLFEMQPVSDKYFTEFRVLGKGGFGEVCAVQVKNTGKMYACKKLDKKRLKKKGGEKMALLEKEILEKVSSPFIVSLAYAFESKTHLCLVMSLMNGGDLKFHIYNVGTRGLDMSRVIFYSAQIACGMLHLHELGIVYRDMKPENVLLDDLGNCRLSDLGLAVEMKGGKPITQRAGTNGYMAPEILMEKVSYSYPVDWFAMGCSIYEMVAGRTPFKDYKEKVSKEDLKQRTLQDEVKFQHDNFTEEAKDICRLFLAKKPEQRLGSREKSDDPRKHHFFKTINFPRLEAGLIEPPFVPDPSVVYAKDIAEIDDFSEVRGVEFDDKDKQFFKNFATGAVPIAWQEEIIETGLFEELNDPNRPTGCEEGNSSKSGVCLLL

HIPK2 = HIPK2 (Homo sapiens (Human), UniProt Q9H2X6)
INSR = INSR (Homo sapiens (Human), UniProt P06213)
INSRR = INSRR (Homo sapiens (Human), UniProt P14616)
MAK = MAK (Homo sapiens (Human), UniProt P20794)
MEK5 = MEK5 (Homo sapiens (Human), UniProt Q13163)
MKNK1 = MKNK1 (Homo sapiens (Human), UniProt Q9BUB5)
MYLK4 = MYLK4 (Homo sapiens (Human), UniProt Q86YV6)
PCTK1 = PCTK1 (Homo sapiens (Human), UniProt Q00536)
Chain of PCTK1 (Q00536 whole entry): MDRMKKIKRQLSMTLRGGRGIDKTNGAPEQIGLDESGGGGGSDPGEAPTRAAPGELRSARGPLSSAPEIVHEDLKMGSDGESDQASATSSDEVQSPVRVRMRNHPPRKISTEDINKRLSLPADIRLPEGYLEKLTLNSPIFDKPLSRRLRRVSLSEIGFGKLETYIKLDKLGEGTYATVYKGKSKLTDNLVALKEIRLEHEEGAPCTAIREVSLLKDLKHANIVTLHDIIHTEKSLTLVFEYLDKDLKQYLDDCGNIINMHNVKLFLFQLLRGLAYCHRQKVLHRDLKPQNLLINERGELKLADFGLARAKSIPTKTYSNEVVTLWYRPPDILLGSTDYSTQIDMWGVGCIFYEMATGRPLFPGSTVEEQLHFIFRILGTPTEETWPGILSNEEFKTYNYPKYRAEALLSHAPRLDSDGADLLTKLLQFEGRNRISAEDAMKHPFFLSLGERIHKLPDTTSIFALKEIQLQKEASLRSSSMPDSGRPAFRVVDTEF

PIK3CA(M10431) = PIK3CA(M10431) (Homo sapiens (Human), UniProt P42336, M1043I)
PKAC-alpha = PKAC-alpha (Homo sapiens (Human), UniProt P17612)
PYK2 = PYK2 (Homo sapiens (Human), UniProt Q14289)
RET(V804L) = RET(V804L) (Homo sapiens (Human), UniProt P07949, V804L)
Chain of RET(V804L) (P07949 29-1114 V804L): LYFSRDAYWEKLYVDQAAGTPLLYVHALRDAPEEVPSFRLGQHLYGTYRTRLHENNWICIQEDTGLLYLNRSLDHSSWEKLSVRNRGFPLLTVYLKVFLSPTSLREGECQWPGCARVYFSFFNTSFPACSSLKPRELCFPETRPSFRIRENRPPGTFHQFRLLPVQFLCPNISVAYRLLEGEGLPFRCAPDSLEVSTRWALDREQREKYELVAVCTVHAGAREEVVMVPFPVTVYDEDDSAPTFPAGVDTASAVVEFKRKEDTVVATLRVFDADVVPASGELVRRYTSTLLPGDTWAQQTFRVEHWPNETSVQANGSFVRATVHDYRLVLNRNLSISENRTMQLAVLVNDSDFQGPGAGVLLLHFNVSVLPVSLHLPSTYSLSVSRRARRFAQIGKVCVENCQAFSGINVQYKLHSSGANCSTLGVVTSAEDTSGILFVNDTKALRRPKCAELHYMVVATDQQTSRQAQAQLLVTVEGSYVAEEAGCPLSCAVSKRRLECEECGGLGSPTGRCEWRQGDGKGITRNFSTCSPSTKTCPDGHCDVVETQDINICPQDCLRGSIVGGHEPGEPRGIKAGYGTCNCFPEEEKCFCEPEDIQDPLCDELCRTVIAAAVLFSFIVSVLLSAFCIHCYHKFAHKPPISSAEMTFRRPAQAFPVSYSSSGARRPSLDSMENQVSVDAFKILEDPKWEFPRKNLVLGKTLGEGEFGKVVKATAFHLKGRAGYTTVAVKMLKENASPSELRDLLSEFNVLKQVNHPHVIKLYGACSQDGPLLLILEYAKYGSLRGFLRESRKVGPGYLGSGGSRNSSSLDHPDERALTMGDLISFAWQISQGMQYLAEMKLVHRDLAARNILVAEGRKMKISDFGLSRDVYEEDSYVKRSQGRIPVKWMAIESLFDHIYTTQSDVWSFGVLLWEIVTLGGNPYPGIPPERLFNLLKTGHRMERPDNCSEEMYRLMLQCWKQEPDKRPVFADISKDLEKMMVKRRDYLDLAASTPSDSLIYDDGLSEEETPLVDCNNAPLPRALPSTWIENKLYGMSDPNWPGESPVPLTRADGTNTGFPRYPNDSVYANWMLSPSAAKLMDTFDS

RIPK2 = RIPK2 (Homo sapiens (Human), UniProt O43353)
Chain of RIPK2 (O43353 whole entry): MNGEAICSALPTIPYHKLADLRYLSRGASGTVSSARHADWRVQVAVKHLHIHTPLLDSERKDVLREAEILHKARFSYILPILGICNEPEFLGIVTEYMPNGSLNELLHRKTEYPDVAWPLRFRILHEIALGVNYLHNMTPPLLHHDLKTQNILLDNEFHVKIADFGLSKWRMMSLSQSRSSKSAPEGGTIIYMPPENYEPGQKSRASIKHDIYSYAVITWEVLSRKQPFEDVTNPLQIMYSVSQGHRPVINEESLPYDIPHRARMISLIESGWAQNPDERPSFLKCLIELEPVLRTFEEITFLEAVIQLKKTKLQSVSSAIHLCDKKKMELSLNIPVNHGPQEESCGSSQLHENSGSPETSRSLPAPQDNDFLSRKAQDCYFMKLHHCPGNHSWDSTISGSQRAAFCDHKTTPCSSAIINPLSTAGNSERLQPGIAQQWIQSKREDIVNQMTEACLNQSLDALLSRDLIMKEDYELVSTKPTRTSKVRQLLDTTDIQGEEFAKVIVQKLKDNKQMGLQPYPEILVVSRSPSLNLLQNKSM

S6K1 = S6K1 (Homo sapiens (Human), UniProt P23443)
SLK = SLK (Homo sapiens (Human), UniProt Q9H2G2)
TAOK2 = TAOK2 (Homo sapiens (Human), UniProt Q9UL54)
TXK = TXK (Homo sapiens (Human), UniProt P42681)

CN(C[C@@H](O)Cc1ccccc1)C(=O)c1cncc(C#Cc2cnn(C(F)F)c2)c1 [Example 2, (S)-5-((1-(difluoromethyl)-1H-pyrazol-4-yl)ethynyl)-N-(2-hydroxy-3-phenylpropyl)-N-methylnicotinamide]
remaining activity at 0.1 µM ([1]; ABL1(F317I)-nonphosphorylated): 100%
remaining activity at 0.1 µM ([2]; ABL1(F317I)-phosphorylated): 100%
remaining activity at 0.1 µM (AKT1; AKT1): 100%
remaining activity at 0.1 µM (AURKB; AURKB): 100%
remaining activity at 0.1 µM (CHEK1; CHEK1): 100%
remaining activity at 0.1 µM (CSNK1G2; CSNK1G2): 100%
remaining activity at 0.1 µM (DDR1; DDR1): 100%
remaining activity at 0.1 µM (EPHA5; EPHA5): 100%
remaining activity at 0.1 µM (EPHB3; EPHB3): 100%
remaining activity at 0.1 µM (FES; FES): 100%
remaining activity at 0.1 µM (FGFR1; FGFR1): 94%
remaining activity at 0.1 µM (GRK7; GRK7): 100%
remaining activity at 0.1 µM (HIPK2; HIPK2): 99%
remaining activity at 0.1 µM (INSR; INSR): 100%
remaining activity at 0.1 µM (INSRR; INSRR): 100%
remaining activity at 0.1 µM (MAK; MAK): 100%
remaining activity at 0.1 µM (MEK5; MEK5): 89%
remaining activity at 0.1 µM (MKNK1; MKNK1): 96%
remaining activity at 0.1 µM (MYLK4; MYLK4): 99%
remaining activity at 0.1 µM (PCTK1; PCTK1): 91%
remaining activity at 0.1 µM (PIK3CA(M10431); PIK3CA(M10431)): 92%
remaining activity at 0.1 µM (PKAC-alpha; PKAC-alpha): 94%
remaining activity at 0.1 µM (PYK2; PYK2): 100%
remaining activity at 0.1 µM (RET(V804L); RET(V804L)): 100%
remaining activity at 0.1 µM (RIPK2; RIPK2): 100%
remaining activity at 0.1 µM (S6K1; S6K1): 95%
remaining activity at 0.1 µM (SLK; SLK): 99%
remaining activity at 0.1 µM (TAOK2; TAOK2): 84%
remaining activity at 0.1 µM (TXK; TXK): 100%

CN(C[C@H](Cc1ccccc1)OP(=O)(O)O)C(=O)c1cncc(C#Cc2cnn(C(F)F)c2)c1 [Example 19, (S)-1-(5-((1-(difluoromethyl)-1H-pyrazol-4-yl)ethynyl)-N-methylnicotinamido)-3-phenylpropan-2-yl dihydrogen phosphate]
remaining activity at 0.1 µM [1]: 100%
remaining activity at 0.1 µM [2]: 98%
remaining activity at 0.1 µM (AKT1): 100%
remaining activity at 0.1 µM (AURKB): 90%
remaining activity at 0.1 µM (CHEK1): 100%
remaining activity at 0.1 µM (CSNK1G2): 95%
remaining activity at 0.1 µM (DDR1): 100%
remaining activity at 0.1 µM (EPHA5): 100%
remaining activity at 0.1 µM (EPHB3): 100%
remaining activity at 0.1 µM (FES): 100%
remaining activity at 0.1 µM (FGFR1): 95%
remaining activity at 0.1 µM (GRK7): 100%
remaining activity at 0.1 µM (HIPK2): 79%
remaining activity at 0.1 µM (INSR): 100%
remaining activity at 0.1 µM (INSRR): 100%
remaining activity at 0.1 µM (MAK): 100%
remaining activity at 0.1 µM (MEK5): 87%
remaining activity at 0.1 µM (MKNK1): 91%
remaining activity at 0.1 µM (MYLK4): 100%
remaining activity at 0.1 µM (PCTK1): 84%
remaining activity at 0.1 µM (PIK3CA(M10431)): 85%
remaining activity at 0.1 µM (PKAC-alpha): 94%
remaining activity at 0.1 µM (PYK2): 100%
remaining activity at 0.1 µM (RET(V804L)): 100%
remaining activity at 0.1 µM (RIPK2): 100%
remaining activity at 0.1 µM (S6K1): 95%
remaining activity at 0.1 µM (SLK): 97%
remaining activity at 0.1 µM (TAOK2): 77%
remaining activity at 0.1 µM (TXK): 100%
